Test results: patent publication US10639295B2 (priority 2016, dated 2020)
Read-outs that look alike come from different tables or passages of the source.

Tests used:
[1] = for concentration in the lung compared with 4′-demethylepipodophyllotoxin original drug group and etoposide control group: 5 minutes after administration by tail intravenous injection (FIG. 1); for time for which a relatively high drug concentration in the lung lasted (retention time in the lung): after tail intravenous injection; for drug concentration in the lung compared with 4′-demethylepipodophyllotoxin original drug group and etoposide control group: at each time point after tail intravenous injection (FIG. 2); for lung relative uptake rate Re (AUC0-t,lung compound / AUC0-t,lung drug) / peak concentration ratio Ce in the lung (Cmax,lung compound / Cmax,lung drug): versus 4′-demethylepipodophyllotoxin original drug group; for lung relative uptake rate Re (AUC0-t,lung compound / AUC0-t,lung drug) / peak concentration ratio Ce in the lung (Cmax,lung compound / Cmax,lung drug) / lung relative uptake rate Re (AUC0-t,lung compound / AUC0-t,lung control) / peak concentration ratio Ce in the lung (Cmax,lung compound / Cmax,lung control): tail intravenous injection; for lung relative uptake rate Re (AUC0-t,lung compound / AUC0-t,lung drug) / lung relative uptake rate Re (AUC0-t,lung compound / AUC0-t,lung control) / peak concentration ratio Ce in the lung (Cmax,lung compound / Cmax,lung control): equimolar doses; for peak concentration ratio Ce in the lung (Cmax,lung compound / Cmax,lung drug): equimolar to 10.00 mg/kg 4′-demethylepipodophyllotoxin; for lung relative uptake rate Re (AUC0-t,lung compound / AUC0-t,lung control) / peak concentration ratio Ce in the lung (Cmax,lung compound / Cmax,lung control): versus etoposide control group
Procedure: 16 mg of 4′-demethylepipodophyllotoxin was accurately weighed, 5% DMSO, 20% polyethylene glycol 400 and 20% absolute ethanol were added to help dissolution, so as to prepare an injection for intravenous injection with a concentration of 2 mg/mL. 28 mg of etoposide was accurately weighed, and 5% DMSO, 20% polyethylene glycol 400 and 20% absolute ethanol were added to help dissolution, so as to prepare an injection for intravenous injection with a concentration of 3.5 mg/mL. 30.40 mg of compound DC or DP was accurately weighed, and 5% DMSO, 20% polyethylene glycol 400 and 20% absolute ethanol were added to help dissolution, so as to prepare an injection for intravenous injection with a concentration of 3.8 mg/mL.
200 Kunming mice (male, 20±2 g) were used, which were fasted for 12 h before the experiment and given free access to water. In the experiment, they were randomly divided into 4 groups and administered by tail intravenous injection. The administration of 4′-demethylepipodophyllotoxin was carried out with a dosage of 10.00 mg/kg. Etoposide, compound DC and compound DP were administered in equimolar amount as 4′-demethylepipodophyllotoxin, and the administration dosages were etoposide 14.71 mg/kg, compound DC 15.78 mg/kg, and compound DP 15.38 mg/kg, respectively. 5 minutes, 15 minutes, 30 minutes, 1 hour, 2 hours, 4 hours, 8 hours, 12 hours, 24 hours and 48 hours after administration, the blood was collected and the mice sacrificed in all groups. The whole blood was put into sodium heparin-containing EP tubes, centrifuged at 5000 rpm at 4° C. for 5 min, and the upper plasma was collected and frozen at −40° C. for use. The hearts, livers, spleens, lungs, kidneys, brains and pancreas of the mice were immediately separated, and the residual blood was washed away with physiological saline. The remaining water on the surfaces of the organs was absorbed with filter papers. The organs were weighed and physiological saline 2 times the volume of the organs was added for homogenization.
0.1 mL of mouse plasma and 0.1 mL of tissue homogenate were taken and put into a 0.5 mL EP tube, 0.3 mL of methanol was added to all the samples as a protein precipitant. The sample was subjected to vortex vibration for 5 minutes, and then centrifuged at 13000 rpm at 4° C. for 10 min. The supernatant was taken and filtered with a 0.22 μm organic filtration membrane, and 1 μL of the sample was taken and subjected to LC-MS/MS analysis.
LC-MS/MS Analysis Condition
Liquid phase conditions: Agilent 1200 Series High Resolution Rapid LC System (RRLC); chromatographic column: Agilent Diamonsil ODS column (50 mm×4.6 mm, 1.8 μm); mobile phase: for 4′-demethylepipodophyllotoxin, methanol:0.1% formic acid aqueous solution=50:50, for etoposide, acetonitrile:0.1% formic acid aqueous solution=35:65, for compound DC, methanol:0.1% formic acid aqueous solution=[…], and for compound DP, methanol:0.1% formic acid aqueous solution=34:66; flow rate: 0.4 mL/min; column temperature: 30° C.; and injection volume: 1 μL.
Mass spectra conditions: Agilent Triple Quadrupole Mass Spectrometry (6410B); the analytes were subjected to a multiple reaction monitoring (MRM) in positive mode: for 4′-demethylepipodophyllotoxin, etoposide, compound DC and compound DP, fragmentation voltages were 97 V, 148 V, 190 V and 169 V, respectively; collision cell voltages were 20 V, 12 V, 52 V and 36 V, respectively; and ionic reactions (m/z) were 401.1→185, 589.2→229, 632.3→86.1 and 616.3→58.1, respectively; drying gas temperature: 350° C.; drying gas flow rate: 10 L/min; atomization air pressure: 30 psi; and the capillary voltage: 4000V.
Each pharmacokinetic parameters were calculated by DAS3.2.5 software, and the formula for calculating the targeting ability evaluation index, i.e., peak concentration ratio Ce and relative uptake rate Re, were shown hereinafter. Celung=(Cmax,lung)compound/(Cmax,lung)drug or control Relung=(AUC0-t,lung)compound/(AUC0-t,lung)drug or control

[2] = test system: mouse melanoma B16 cells; assay type: in vivo, C57BL/6 mice; details: intravenous injection, equimolar to 5.00 mg/kg 4′-demethylepipodophyllotoxin; for curative effect on lung metastatic tumor: 22nd day after modeling; for tumor-bearing lung weight / number of lung metastasis tumor nodules: sacrificed on the 22nd day; for tumor-bearing lung weight: compared with control group (FIG. 3); for number of lung metastasis tumor nodules: compared with control group (FIG. 4)
Procedure: The experiment was performed according to the method reported by Small, 2014(3):524-535. C57BL/6 mice (male, 20±2 g, 6 to 8 week-old) were used and intravenously injected with mouse melanoma B16 cells in logarithmic growth phase. 5×10^5 cells were injected into each mouse to establish a melanoma lung metastasis model, and the mice were randomly divided into 5 groups (recorded as the 0th day). The injections for intravenous injecting used in the experiment were prepared according to Example 6. On the 4th, 7th and 13th day after the modeling, each group was subjected to intravenous injection for […]. 4′-demethylepipodophyllotoxin was provided at a dosage of 5.00 mg/kg, and etoposide, compound DC and compound DP were provided at equimolar amount with 4′-demethylepipodophyllotoxin, and the administration dosages were etoposide 7.36 mg/kg, compound DC 7.89 mg/kg, and compound DP 7.69 mg/kg, respectively. The control group was administered with equal amount of solvent. All mice were housed normally and sacrificed on the 22nd day after modeling. The lung tissue was immediately separated out, washed with physiological saline and weighed, and the number of tumor nodules was calculated.

Compound	concentration in the lung compared with 4′-demethylepipodophyllotoxin original drug group and etoposide control group [1]	time for which a relatively high drug concentration in the lung lasted (retention time in the lung) [1]	drug concentration in the lung compared with 4′-demethylepipodophyllotoxin original drug group and etoposide control group [1]	lung relative uptake rate Re (AUC0-t,lung compound / AUC0-t,lung drug) [1] [times]	peak concentration ratio Ce in the lung (Cmax,lung compound / Cmax,lung drug) [1] [times]	lung relative uptake rate Re (AUC0-t,lung compound / AUC0-t,lung control) [1] [times]	peak concentration ratio Ce in the lung (Cmax,lung compound / Cmax,lung control) [1] [times]	curative effect on lung metastatic tumor [2]	tumor-bearing lung weight [2]	number of lung metastasis tumor nodules [2]	concentration in the lung ([1]; mouse, in vivo, iv, 14.71 mg/kg)	concentration in the lung ([1]; one hour after the administration, tail intravenous injection 10.00 mg/kg)
COc1cc([C@@H]2c3cc4c(cc3[C@@H](NC(=O)c3ccc(CN(C)CCCN(C)C)cc3)[C@H]3COC(=O)[C@H]23)OCO4)cc(OC)c1O [compound DC]	much higher	up to 48 hours	much higher	168.38	5.29	98.16	4.54	best curative effects	least	least	–	–
COc1cc([C@@H]2c3cc4c(cc3[C@@H](O[C@@H]3O[C@@H]5CO[C@@H](C)O[C@H]5[C@H](O)[C@H]3O)[C@H]3COC(=O)[C@H]23)OCO4)cc(OC)c1O [etoposide, reference compound]	–	–	–	–	–	–	–	improved the lung metastatic tumor to a certain degree	reduced the tumor-bearing lung weight	decreases the number of lung metastasis tumor nodules	below the detectable limit	–
COc1cc(C2c3cc4c(cc3C(O)C3COC(=O)C23)OCO4)cc(OC)c1O (stereo not shown) [4′-demethylepipodophyllotoxin, reference compound]	–	–	–	–	–	–	–	improved the lung metastatic tumor to a certain degree	reduced the tumor-bearing lung weight	decreases the number of lung metastasis tumor nodules	–	below the detectable limit
COc1cc([C@@H]2c3cc4c(cc3[C@@H](NC(=O)c3ccc(CN5CCN(C)CC5)cc3)[C@H]3COC(=O)[C@H]23)OCO4)cc(OC)c1O [compound DP]	much higher	≤ 12 h	much higher	42.56	5.41	24.81	4.65	best curative effects	least	least	–	–
